“And” between values parts separate entries of the source, which are not always exact repeats. Equal values may be shown once.

The values below come from ChEMBL document CHEMBL1122030, “2-Arylpyrazolo[4,3-c]quinolin-3-ones: novel agonist, partial agonist, and antagonist of benzodiazepines” (J Med Chem, 1982).

The target of experiment [1] is GABA-A receptor; anion channel. Description: In vitro inhibition of binding to GABA-A central benzodiazepine-receptor of rat brain.
Experiment [2] concerns Rattus norvegicus. Description: Antianxiety effect was assessed by the cook-davidson behavior test at 10 mg/kg of compound administered perorally. Format: functional. To be noted: route oral.
Experiment [3] relates to Rattus norvegicus. Description: Antianxiety effect was assessed by the cook-davidson behavior test at 3 mg/kg of compound administered perorally. The format is functional. To be noted: route oral.
Experiment [4] is filed under the species Rattus norvegicus. Description: Antianxiety effect was assessed by the cook-davidson behavior test. The format is functional.
The test system of experiment [5] is Rattus norvegicus. Description: Antianxiety effect was assessed by the cook-davidson behavior test at 1 mg/kg of compound administered perorally. Format: functional. To be noted: route oral.
Experiment [6] concerns Rattus norvegicus. Description: Anticonvulsant efficacy when administered perorally was determined in rat metrazole anticonvulsant test; Calculated from responses at 1,3 and 10 mg/kg doses. Format: functional. To be noted: route oral.
Experiment [7] concerns Rattus norvegicus. Description: (§1) Effect on anti-convulsive 5.4 mg/kg Diazepam peroral dose in rats given 24 mg/kg iv metrazol, number of rats protected (of 6). Format: functional.
The test system of experiment [8] is Rattus norvegicus. Description: Antianxiety effect in cook-davidson behavior test at 3 mg/kg of compound administered perorally in rats expressed as mean percent change. Format: functional. The following applies: route oral.
In experiment [9] the test system is Rattus norvegicus. Description: Antianxiety effect in cook-davidson behavior test at 1 mg/kg of compound administered perorally in rats expressed as mean percent change. Format: functional. The following applies: route oral.
Experiment [10] deals with Rattus norvegicus. Description: Antianxiety effect in cook-davidson behavior test at 10 mg/kg of compound administered perorally in rats expressed as mean percent change. The following applies: route oral. Format: functional.
The test system of experiment [11] is Rattus norvegicus. Description: Antianxiety effect was assessed by the cook-davidson behavior test at 30 mg/kg of compound administered perorally. The format is functional. To be noted: route oral.
Experiment [12] concerns Rattus norvegicus. Description: Anticonvulsant efficacy when administered perorally was determined in rat metrazole anticonvulsant test. Format: functional. The following applies: po.
In experiment [13] the test system is Rattus norvegicus. Description: Antianxiety effect in cook-davidson behavior test at 30 mg/kg of compound administered perorally in rats expressed as mean percent change. The format is functional. The following applies: route oral.
Experiment [14] addresses T1, GABA-A receptor; anion channel (Rattus norvegicus) (UniProt O09028+P15431+P18506+P18508+P19969+P20236+P23574+P23576+P28471+P28473+P30191+P62813+P63079+P63138+Q91ZM7+Q9ES14).
Description: (§2) In vivo inhibition of binding to GABA-A central benzodiazepine-receptor after po administration in rats
Experiment [15] relates to Rattus norvegicus. Described as §1. The format is functional. This is another data set of the same source.
Experiment [16] has as its system Rattus norvegicus. The experiment is described as §1. Format: functional. The source holds these as a separate data set.
In experiment [17] the test system is Rattus norvegicus. Described as §1. Format: functional. This is another data set of the same source.
Experiment [18] addresses T1, GABA-A receptor; anion channel (Rattus norvegicus). This is another data set of the same source.
Description: as §2
For experiment [19] the target is unchanged. This is another data set of the same source.
Description: In vivo inhibition of binding to GABA-A central benzodiazepine-receptor after ip administration in rats

In experiment [1], `COc1ccc(-n2nc3c4ccccc4[nH]cc-3c2=O)cc1` yielded an IC50 of 0.1 nM. In addition, the FR10 treated came to 100 in experiment [2], 124 in [3] and 98 in experiment [5]. Besides, the FR10 control in experiment [4] was 61 and 65 and 50. Besides, the 50% effective dose (ED50) in [6] is 2.81 mg/kg. Further, the “No. of animals protected” value in experiment [7] is reported as 4. Moreover, the values for the VI30 in [8], in experiment [9] and in [10] were 7.8%, 6.5% and 5.7%, respectively.

Turning to `CN1C(=O)CN=C(c2ccccc2)c2cc(Cl)ccc21` [DIAZEPAM], the FR10 treated in experiment [11] was 240; in experiment [2] it was 206; in [3] it was 131; in experiment [5], 97. Also, in experiment [4], the FR10 control is 82 and 85 and 63 and 76. This compound also displayed an ED50 in experiment [12] of 4 mg/kg. Further, the VI30 in experiment [8] is 6.1%; in [13], -23.8%; in [9], 5.9%; in experiment [10], 3.6%. In experiment [14], this compound returned an ID50 of 5 mg/kg.

On to `O=C1C2C=Nc3ccccc3C2=NN1c1ccccc1` (stereo not given) [CGS-8216], for which, in [1], the IC50 was found to be 0.4 nM. Further, the FR10 treated in experiment [5] is reported as 87. Also, the “No. of animals protected” value in experiment [7] is 5; in experiment [15], 0; in experiment [16], 0; in experiment [17], 1. Also, the VI30 in experiment [9] stood at 0.1%. Further, the ID50 in experiment [18] is 7.06 mg/kg.

`O=C1C2C=Nc3ccccc3C2=NN1c1ccc(Cl)cc1` (stereo not given) [CGS-9896] showed an IC50 in experiment [1] of 0.6 nM. Besides, the FR10 treated in [2] came out at 230; in experiment [3], 234; in experiment [5] it was 217. For the same compound, in experiment [4], the FR10 control is 67 and 112 and 81 and 73. Moreover, the 50% effect level in experiment [12] (ED50) was put at a dose of 0.9 mg/kg. Also, the VI30 is reported as 10.2% in experiment [8], 7.5% in experiment [13], 0.1% in experiment [9] and 18.2% in [10]. This compound also returned an ID50 in experiment [19] of 3.3 mg/kg.

By IC50 is commonly meant the concentration at which inhibition is half-maximal. Low values mean greater potency, high ones weaker potency. Usually ED50 stands for the midpoint of the dose-response relation.
